According to US10485787B2, “Oral dosage forms of bendamustine and therapeutic use thereof” (ASTELLAS DEUTSCHLAND GMBH, priority 2010, dated 2019):
Counter-ions that a name gives are not always drawn.

Experiments:
[1] = Phase 1 crossover study, plasma pharmacokinetics of bendamustine, M3 and M4 (Example 23)
Description: 14 patients who were suffering from multiple myeloma, B-cell type chronic lymphocytic leukemia or advanced indolent non-Hodgkin's lymphoma were enrolled and were treated with bendamustine. […] After signing the informed consent form and following the screening period (days −21 to −2), eligible patients were assigned a patient number which was specific for each study site. Patients were randomized to receive one of the following on day 1 followed by the other on day 8: • a single oral dose of 110.2 mg (2×55.1 mg) bendamustine HCl • a single intravenous dose of 100 mg bendamustine HCl
Bendamustine was provided a) orally as capsules, a LFHC formulation (liquid-filled, hard-shell capsule) and b) intravenously as a solution after reconstituting a powder for the preparation of a solution for injection. The LFHC formulation (per capsule) was prepared from 55.1 mg bendamustine hydrochloride, 1.2 mg methylparaben, 0.12 mg […], 0.12 mg butylated hydroxytoluene, 10.9 mg ethanol and 532.56 mg Cremophor® RH40. The vial with powder for concentrate for solution was the marketed product in Germany (Ribomustine®) which contains per vial 100 mg of bendamustine hydrochloride and mannitol as an excipient. This product was reconstituted with water for injection to a final concentration of 2.5 mg/ml of bendamustine HCl and was further diluted with 0.9% NaCl until about 500 ml before administration to the patient, in accordance with the instructions of the package insert.
Patients were admitted to the study site for 2 periods; days −1 to 2 (period 1) and days 7 to 9 (period 2). A total of 12 patients was to be randomized to receive treatment. Six patients were to receive treatment with a single oral dose of 110.2 mg (2×55.1 mg) bendamustine HCl (day 1) followed by a single intravenous dose of 100 mg bendamustine HCl (day 8) while 6 other patients were to receive treatment in the alternate order. Patients underwent a washout period of at least 7 days between treatments.
After oral and intravenous administration of bendamustine the concentration of bendamustine, as well as that of the active metabolites of bendamustine (M3 and M4), were determined in plasma and urine samples on day 1 and day 8. Patients returned to the study site for an end-of-study visit 7 to 14 days after completion of the second treatment period, or after early discharge/withdrawal. Subsequently the pharmacokinetic parameters of bendamustine and its metabolites were calculated.

[2] = Phase 1 crossover study, urine pharmacokinetics of bendamustine, M3 and M4 (Example 23); type: in vivo, patients; conditions: for percentage of the dose excreted in urine as the metabolite: oral administration; for %Aeinf / %Aelast / CL renal: urine, Bendamustine HCl; for CL renal: human; for percentage of the dose excreted in urine unchanged: oral bendamustine
Description: Bendamustine was provided a) orally as capsules, a LFHC formulation (liquid-filled, hard-shell capsule) and b) intravenously as a solution after reconstituting a powder for the preparation of a solution for injection. The LFHC formulation (per capsule) was prepared from 55.1 mg bendamustine hydrochloride, 1.2 mg methylparaben, 0.12 mg polyparaben, 0.12 mg butylated hydroxytoluene, 10.9 mg ethanol and 532.56 mg Cremophor® RH40. The vial with powder for concentrate for solution was the marketed product in Germany (Ribomustine®) which contains per vial 100 mg of bendamustine hydrochloride and mannitol as an excipient. This product was reconstituted with water for injection to a final concentration of 2.5 mg/ml of bendamustine HCl and was further diluted with 0.9% NaCl until about 500 ml before administration to the patient, in accordance with the instructions of the package insert.
After oral and intravenous administration of bendamustine the concentration of bendamustine, as well as that of the active metabolites of bendamustine (M3 and M4), were determined in plasma and urine samples on day 1 and day 8. […] Subsequently the pharmacokinetic parameters of bendamustine and its metabolites were calculated.

[3] = cited from earlier work
[4] = a range of organic solvents; cited from earlier work
[5] = Phase 1 crossover study, safety and tolerability (Example 23); type: in vivo, patients; conditions: oral and intravenous single doses
Description: Bendamustine was provided a) orally as capsules, a LFHC formulation (liquid-filled, hard-shell capsule) and b) intravenously as a solution after reconstituting a powder for the preparation of a solution for injection. The LFHC formulation (per capsule) was prepared from 55.1 mg bendamustine hydrochloride, 1.2 mg methylparaben, 0.12 mg polyparaben, 0.12 mg butylated hydroxytoluene, 10.9 mg ethanol and 532.56 mg Cremophor® RH40. The vial with powder for concentrate for solution was the marketed product in Germany (Ribomustine®) which contains per vial 100 mg of bendamustine hydrochloride and mannitol as an excipient. […]

[6] = Stability of aqueous solution of bendamustine as a function of pH; type: physicochemical

Cn1c(C(O)CCC(=O)O)nc2cc(N(CCCl)CCCl)ccc21 (stereo not drawn) [Example M3, γ-hydroxybendamustine]
Mean AUCinf of bendamustine, times higher than for the metabolite ([1]; oral administration): 10.6 times
percentage of the dose excreted in urine as the metabolite [2]: 0.6%
%Aeinf ([2]; 100 mg intravenously, Mean): 0.459%
%Aelast ([2]; 100 mg intravenously, Mean): 0.457%
%Aeinf ([2]; 100 mg intravenously, Median): 0.354%
%Aelast ([2]; 100 mg intravenously, Median): 0.353%
%Aeinf ([2]; 100 mg intravenously, Min-max): 0.018-1.6%
%Aelast ([2]; 100 mg intravenously, Min-max): 0.018-1.6%
%Aeinf ([2]; 110.2 mg orally, Mean): 0.611%
%Aelast ([2]; 110.2 mg orally, Mean): 0.61%
%Aeinf ([2]; 110.2 mg orally, Median): 0.537%
%Aelast ([2]; 110.2 mg orally, Median): 0.553%
%Aeinf ([2]; 110.2 mg orally, Min-max): 0.13-1.5%
%Aelast ([2]; 110.2 mg orally, Min-max): 0.12-1.6%

O=C(O)CCCc1nc2cc(N(CCCl)CCCl)ccc2[nH]1 [Example M4, N-desmethylbendamustine]
Mean AUCinf of bendamustine, times higher than for the metabolite ([1]; oral administration): 88 times
percentage of the dose excreted in urine as the metabolite [2]: 0.1%
%Aeinf ([2]; 100 mg intravenously, Mean): 0.081%
%Aelast ([2]; 100 mg intravenously, Mean): 0.086%
%Aeinf ([2]; 100 mg intravenously, Median): 0.045%
%Aelast ([2]; 100 mg intravenously, Median): 0.043%
%Aeinf ([2]; 100 mg intravenously, Min-max): 0.0039-0.17%
%Aelast ([2]; 100 mg intravenously, Min-max): 0.0028-0.21%
%Aeinf ([2]; 110.2 mg orally, Mean): 0.109%
%Aelast ([2]; 110.2 mg orally, Mean): 0.113%
%Aeinf ([2]; 110.2 mg orally, Median): 0.104%
%Aelast ([2]; 110.2 mg orally, Median): 0.104%
%Aeinf ([2]; 110.2 mg orally, Min-max): 0.034-0.22%
%Aelast ([2]; 110.2 mg orally, Min-max): 0.019-0.21%

Cn1c(CCCC(=O)O)nc2cc(N(CCCl)CCCl)ccc21 [bendamustine hydrochloride]
AUC(0-inf) ([1]; human, plasma, iv, 100 mg): 4790 ng·h/mL
AUC(0-t) ([1]; human, plasma, iv, 100 mg): 4780 ng·h/mL
Cmax ([1]; human, plasma, iv, 100 mg): 5900 ng/mL
Vd ([1]; human, plasma, iv, 100 mg, Vss, plasma, Bendamustine HCl, 100 mg intravenously, Mean): 10.3 L
Vd ([1]; human, plasma, iv, 100 mg, Vz, Bendamustine HCl, 100 mg intravenously, Mean): 14.7 L
half-life ([1]; human, plasma, iv, 100 mg, t1/2, plasma, Bendamustine HCl, 100 mg intravenously, Mean): 30.2 min
Tmax ([1]; human, plasma, iv, 100 mg, Bendamustine HCl, 100 mg intravenously, Mean): 31.4 min
AUC(0-inf) ([1]; human, plasma, po, 110.2 mg): 3900 ng·h/mL
AUC(0-t) ([1]; human, plasma, po, 110.2 mg): 3890 ng·h/mL
Cmax ([1]; human, plasma, po, 110.2 mg): 3170 ng/mL
Vd/F ([1]; human, plasma, po, 110.2 mg): 20.2 L
half-life ([1]; human, plasma, po, 110.2 mg, t1/2, plasma, Bendamustine HCl, 110.2 mg orally, Mean): 27.7 min
Tmax ([1]; human, plasma, po, 110.2 mg, Bendamustine HCl, 110.2 mg orally, Mean): 56.8 min
CL ([1]; plasma, Bendamustine HCl, 100 mg intravenously, Mean): 21.2 L/h
CL renal ([2]; iv, 100 mg, 100 mg intravenously, Mean): 6.42 mL/min
CL renal ([2]; iv, 100 mg, 100 mg intravenously, Median): 3.37 mL/min
CL renal ([2]; iv, 100 mg, 100 mg intravenously, Min-max): 1 to 23.3 mL/min
CL renal ([2]; po, 110.2 mg, 110.2 mg orally, Mean): 13.1 mL/min
CL renal ([2]; po, 110.2 mg, 110.2 mg orally, Median): 13 mL/min
CL renal ([2]; po, 110.2 mg, 110.2 mg orally, Min-max): 3 to 33.3 mL/min
%Aeinf ([2]; 100 mg intravenously, Mean): 2.07%
%Aelast ([2]; 100 mg intravenously, Mean): 2.07%
%Aeinf ([2]; 100 mg intravenously, Median): 1.22%
%Aelast ([2]; 100 mg intravenously, Median): 1.23%
%Aeinf ([2]; 100 mg intravenously, Min-max): 0.27-8.8%
%Aelast ([2]; 100 mg intravenously, Min-max): 0.27-8.8%
%Aeinf ([2]; 110.2 mg orally, Mean): 2.64%
%Aelast ([2]; 110.2 mg orally, Mean): 2.66%
%Aeinf ([2]; 110.2 mg orally, Median): 2.23%
%Aelast ([2]; 110.2 mg orally, Median): 2.23%
%Aeinf ([2]; 110.2 mg orally, Min-max): 0.40-5.8%
%Aelast ([2]; 110.2 mg orally, Min-max): 0.40-5.9%
time at which maximal plasma levels were detectable ([3]; oral capsules, 250-350 mg, 7 patients (Preiss 1985)): ≤ 1 h
oral bioavailability, inter-individual range ([3]; similar study, Preiss et al. 1989): 25-121%
solubility in organic solvents [4]: slightly or very slightly soluble

Cn1c(CCCC(=O)O)nc2cc(N(CCCl)CCCl)ccc21 [bendamustine, 4-[5-[bis(2-chloroethyl)amino]-1-methylbenzimidazo-2-yl]butanoic acid]
clearance ([1]; human, plasma, iv, 100 mg): 353 mL/min
Vd ([1]; human, plasma, iv, 100 mg, Mean VSS, intravenous administration): 10.3 L
Vd ([1]; human, plasma, iv, 100 mg, Mean VZ, intravenous administration): 14.7 L
half-life ([1]; human, plasma, iv, 100 mg, Mean t1/2, intravenous administration): ~30 min
half-life ([1]; human, plasma, po, 110.2 mg, Mean t1/2, oral intake): ~30 min
Tmax ([1]; human, plasma, po, 110.2 mg, individual values, oral administration): 15 to 108 min
Tmax ([1]; human, plasma, po, 110.2 mg, oral administration): ~57 min
percentage of the dose excreted in urine unchanged [2]: 2.6%
percentage of the dose excreted in urine unchanged ([2]; listed as Bendamustine): Approximately 2.6%
deaths during the study [5]: No deaths
pH values at which significant hydrolytic decomposition is observed [6]: higher than 5
oral bioavailability, range ([3]; oral capsules, 250-350 mg, patients (Preiss 1985)): 25-94%
